Literature values in US20240317750A1, “An Efficient Process for the Synthesis of Methylliberine and Polymorphs Thereof” (Fertis India Pvt. Ltd., priority 2021, published 2024).

Conditions: background statement, available toxicological information; no test described

COc1nc2c(c(=O)n1C)n(C)c(=O)n2C [methylliberine, 2-Methoxy-1,7,9-trimethyl-7,9-dihydro-1H-purine-6,8-dione]
genotoxicity: does not cause any genotoxicity
